Source: US12565475B2, “Small molecule compound inhibiting signal transmission path of TLR7 and TLR9 and use thereof” (AJOU UNIVERSITY INDUSTRY-ACADEMIC COOPERATION FOUNDATION, priority 2019, dated 2026)
“Also recorded” adds a separate entry of the source.

Molecular target: T1, TLR7 (Mus musculus, UniProt P58681)
T1 construct: endogenous in cells; host or cells: RAW 264.7
T1 sequence (P58681 27-1050): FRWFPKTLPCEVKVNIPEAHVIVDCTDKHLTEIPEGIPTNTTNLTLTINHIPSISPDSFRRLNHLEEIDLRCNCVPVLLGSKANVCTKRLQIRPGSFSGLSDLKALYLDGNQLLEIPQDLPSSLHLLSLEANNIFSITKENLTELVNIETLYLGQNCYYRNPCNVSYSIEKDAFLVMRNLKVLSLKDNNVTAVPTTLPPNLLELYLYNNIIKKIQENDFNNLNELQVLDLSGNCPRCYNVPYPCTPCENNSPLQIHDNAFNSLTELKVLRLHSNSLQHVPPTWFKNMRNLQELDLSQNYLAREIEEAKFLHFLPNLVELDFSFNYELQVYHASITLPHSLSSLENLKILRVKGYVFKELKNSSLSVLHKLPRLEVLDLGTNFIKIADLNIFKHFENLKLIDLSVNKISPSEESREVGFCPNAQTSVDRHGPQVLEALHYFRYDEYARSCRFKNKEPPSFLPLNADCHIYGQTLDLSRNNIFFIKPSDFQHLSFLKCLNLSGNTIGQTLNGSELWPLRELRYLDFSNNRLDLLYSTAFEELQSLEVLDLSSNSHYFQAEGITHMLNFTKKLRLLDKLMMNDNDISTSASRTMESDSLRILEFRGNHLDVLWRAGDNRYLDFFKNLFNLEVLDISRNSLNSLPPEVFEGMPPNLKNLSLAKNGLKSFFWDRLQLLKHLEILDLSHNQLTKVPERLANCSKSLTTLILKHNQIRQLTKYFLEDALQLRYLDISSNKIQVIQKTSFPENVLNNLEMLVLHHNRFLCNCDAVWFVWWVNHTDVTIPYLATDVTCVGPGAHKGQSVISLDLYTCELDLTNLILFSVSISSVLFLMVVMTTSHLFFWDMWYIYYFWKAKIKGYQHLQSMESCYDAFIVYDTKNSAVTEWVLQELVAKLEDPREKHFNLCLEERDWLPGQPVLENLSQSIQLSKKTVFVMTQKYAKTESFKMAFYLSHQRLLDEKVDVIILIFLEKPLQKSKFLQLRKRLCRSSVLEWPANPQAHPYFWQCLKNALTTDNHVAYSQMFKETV
Assay: TLR7-mediated TNF-α secretion (imiquimod stimulation), ELISA
Assay type: cell-based, murine
Description: Agonists specific to TLR1/TLR2 (Pam3CSK4), TLR2/TLR6 (FSL-1), TLR3 (Poly I:C), TLR7 (imiquimod), and TLR8 (TL8-506) were purchased from InvivoGen Ltd. (Hong-Kong, China), and a TLR4-specific agonist (LPS from E. coli O111:B4) was purchased from Sigma-Aldrich, Inc. For TLR9-specific stimulation, class C CpG-ODN (ODN2395, 5′-TCGTCGTTTTCGGCGCGCGCCG-3′) having full phosphorothioate backbone modification was synthesized (Bioneer, Inc., Daejeon, Korea). All TLR agonists were dissolved in deionized water and applied to a culture media for TLR activation. The cells were treated with test compounds or a control medium for 1 hour, and then stimulated with a TLR agonist for 4 hours, or 24 hours in the case of poly(I:C), and the cytokine secretion was monitored.
RAW 264.7 or differentiated THP-1 cell lines were seeded onto a 96-well culture plate at a density of 2×10^4 cells/well. The cells were treated with test compounds for 1 hour followed by the stimulation with TLR agonists for 4 hours. The supernatant was transferred to pre-coated assay plates, and the secretion levels of mouse and human TNF-α were measured by respective ELISA kits (Invitrogen, Carlsbad, CA, USA). All experiments were performed according to the manufacturer's instructions. Absorbance was measured by a microplate reader spectrophotometer (Molecular Devices, Inc., San Jose, CA, USA), and data was interpolated from a standard curve using SoftMax Pro 5.3 software (Molecular Devices, Inc.).
In order to evaluate the antagonistic effect of each compound on TLR7/TLR9 through ELISA (enzyme-linked immunosorbent assay), RAW 264.7 cells were pretreated with the eight compounds followed by the stimulation with a TLR7-specific agonist (imiquimod, 3.61 μM) or with a TLR9-specific agonist (ODN2395, 0.5 μM). […] Since the two ligands had no agonistic effect per se (FIG. 3B), the increased cytokine production may be due to cell activation (or non-specific cellular stress) by co-treatment. Consequently, TIC10 was selected as the most suitable lead for further optimization to improve the inhibitory potency against both TLR7 and TLR9.

With COc1ccc(CNc2ncc(-c3ccc4c(c3)OCO4)n2C)c(OC)c1 [TIC10-7, 5-(2H-1,3-benzodioxol-5-yl)-N-[(2,4-dimethoxyphenyl)methyl]-1-methyl-1H-imidazol-2-amine] as the molecule, how does the “TLR7-mediated TNF-α secretion” value (RAW 264.7, 10 or 20 μM, imiquimod (receptor specificity, FIG. 6)) read?
The value was “moderately reduced”.

What about the “inhibitory efficacy on TLR7-mediated TNF-α secretion” value (RAW 264.7, 10 or 50 μM, imiquimod (FIG. 4B)) of the same molecule?
The value was “improved inhibitory efficacy compared to TIC10; also recorded: to a greater extent as compared to the other derivatives”.

What about the IC50 (RAW 264.7, imiquimod (FIG. 4D)) of the same molecule?
Its IC50 is 6.79 µM.
